ChEMBL document CHEMBL1133777, “De novo design of a novel oxazolidinone analogue as a potent and selective alpha1A adrenergic receptor antagonist with high oral bioavailability” (J Med Chem, 2000)
Each block holds one compound with its values, some of them ahead of it.

Tests used:
[1] = target: T1, Alpha-2C adrenergic receptor (Homo sapiens, UniProt P18825); test: Binding affinity towards human alpha-2C-adrenergic receptor, using [3H]rauwolscine as radioligand.
T1 sequence (P18825 whole entry): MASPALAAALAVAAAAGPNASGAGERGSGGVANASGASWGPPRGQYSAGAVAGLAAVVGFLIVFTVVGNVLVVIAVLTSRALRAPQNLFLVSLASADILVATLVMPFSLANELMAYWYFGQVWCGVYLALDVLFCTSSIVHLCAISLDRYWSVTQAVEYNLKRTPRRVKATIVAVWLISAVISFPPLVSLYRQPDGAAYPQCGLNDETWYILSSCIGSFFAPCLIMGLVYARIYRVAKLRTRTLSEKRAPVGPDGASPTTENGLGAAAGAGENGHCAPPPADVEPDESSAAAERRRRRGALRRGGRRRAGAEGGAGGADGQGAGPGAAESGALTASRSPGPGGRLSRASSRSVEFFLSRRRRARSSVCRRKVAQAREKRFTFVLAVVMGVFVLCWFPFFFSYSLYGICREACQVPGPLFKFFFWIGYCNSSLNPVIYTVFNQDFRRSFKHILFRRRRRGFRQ

[2] = Half-life in rat; assay type: ADME, organism-based; conditions: in vivo
[3] = target: Histamine H2 receptor (Homo sapiens, UniProt P25021); test: Binding affinity towards human Histamine H2 receptor, using [3H]tiotidine as radioligand.
Chain of Histamine H2 receptor (P25021 whole entry): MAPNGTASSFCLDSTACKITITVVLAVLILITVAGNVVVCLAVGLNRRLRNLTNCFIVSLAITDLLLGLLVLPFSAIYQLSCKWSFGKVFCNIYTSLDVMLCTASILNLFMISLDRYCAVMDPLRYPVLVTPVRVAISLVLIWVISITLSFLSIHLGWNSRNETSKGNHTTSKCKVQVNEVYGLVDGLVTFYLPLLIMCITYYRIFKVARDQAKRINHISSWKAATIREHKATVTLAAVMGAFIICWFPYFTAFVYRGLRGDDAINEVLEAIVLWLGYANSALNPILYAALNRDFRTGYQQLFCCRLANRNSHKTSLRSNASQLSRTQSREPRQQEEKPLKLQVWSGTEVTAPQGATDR

[4] = target: 5-hydroxytryptamine receptor 2A (Homo sapiens, UniProt P28223); test: Binding affinity towards 5-hydroxytryptamine 2A receptor using [3H]5-HT as radioligand.
Chain of 5-hydroxytryptamine receptor 2A (P28223 whole entry): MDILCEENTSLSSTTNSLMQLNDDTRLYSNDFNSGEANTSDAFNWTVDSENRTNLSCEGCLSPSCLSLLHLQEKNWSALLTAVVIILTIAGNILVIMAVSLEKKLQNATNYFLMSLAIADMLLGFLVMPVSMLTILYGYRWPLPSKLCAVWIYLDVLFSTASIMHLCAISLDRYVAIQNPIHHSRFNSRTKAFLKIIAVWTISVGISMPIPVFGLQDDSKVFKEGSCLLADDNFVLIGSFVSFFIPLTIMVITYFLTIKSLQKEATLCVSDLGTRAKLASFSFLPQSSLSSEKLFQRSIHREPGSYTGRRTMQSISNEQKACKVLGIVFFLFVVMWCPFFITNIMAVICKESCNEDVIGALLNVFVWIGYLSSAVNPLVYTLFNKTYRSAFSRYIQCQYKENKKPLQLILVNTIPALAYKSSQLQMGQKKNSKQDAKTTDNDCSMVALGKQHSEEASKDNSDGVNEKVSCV

[5] = target: Voltage-gated L-type calcium channel (Rattus norvegicus, UniProt P22002+Q02485+P27732); test: Inhibition of [3H]nitrendipine binding to rat L-type Ca-channel receptor; assay type: protein assay
[6] = Oral bioavailability in rat; assay type: ADME, organism-based; conditions: in vivo
[7] = test system: Rattus norvegicus; test: Compound was tested in situ for the inhibition of phenylephrine-induced contractions in anesthetized rat; assay type: functional
[8] = species on record: Rattus norvegicus; test: In vitro inhibition of A-61603 induced contractions in rat prostate tissue; assay type: functional; conditions: Prostate gland
[9] = Oral bioavailability in dog; assay type: ADME, organism-based, Canis lupus familiaris; conditions: in vivo
[10] = target: T2, Alpha-1B adrenergic receptor (Rattus norvegicus, UniProt P15823); test: Binding affinity towards Alpha1B rat adrenergic receptors, using [125I]HEAT as radioligand.
T2 sequence (P15823 whole entry): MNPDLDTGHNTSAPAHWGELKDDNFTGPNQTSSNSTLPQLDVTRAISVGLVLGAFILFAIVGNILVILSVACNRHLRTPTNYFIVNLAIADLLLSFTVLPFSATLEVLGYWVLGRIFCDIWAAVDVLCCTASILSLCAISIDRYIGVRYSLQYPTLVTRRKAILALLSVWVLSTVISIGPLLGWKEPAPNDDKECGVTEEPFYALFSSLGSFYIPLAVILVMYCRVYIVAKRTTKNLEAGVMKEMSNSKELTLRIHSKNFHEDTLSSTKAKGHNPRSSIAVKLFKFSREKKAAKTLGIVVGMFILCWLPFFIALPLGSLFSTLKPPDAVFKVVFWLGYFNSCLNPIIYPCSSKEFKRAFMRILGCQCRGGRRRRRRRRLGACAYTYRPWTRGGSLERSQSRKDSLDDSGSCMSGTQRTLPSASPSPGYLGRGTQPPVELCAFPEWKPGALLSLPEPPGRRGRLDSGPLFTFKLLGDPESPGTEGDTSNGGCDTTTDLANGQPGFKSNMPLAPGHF

[11] = target: 5-hydroxytryptamine receptor 1B (Homo sapiens, UniProt P28222); test: Binding affinity towards 5-hydroxytryptamine 1B receptor using [3H]5-HT as radioligand.
Chain of 5-hydroxytryptamine receptor 1B (P28222 whole entry): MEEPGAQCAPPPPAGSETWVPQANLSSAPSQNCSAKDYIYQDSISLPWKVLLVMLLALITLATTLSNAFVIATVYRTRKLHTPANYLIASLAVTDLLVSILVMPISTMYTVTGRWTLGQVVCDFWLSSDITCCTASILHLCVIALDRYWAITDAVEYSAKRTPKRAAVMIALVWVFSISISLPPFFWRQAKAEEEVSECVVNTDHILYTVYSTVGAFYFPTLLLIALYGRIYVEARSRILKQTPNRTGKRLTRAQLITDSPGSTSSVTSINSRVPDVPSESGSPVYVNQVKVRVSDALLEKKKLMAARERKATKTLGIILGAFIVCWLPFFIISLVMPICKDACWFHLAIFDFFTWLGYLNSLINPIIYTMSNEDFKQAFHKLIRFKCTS

[12] = test system: Canis familiaris; test: In vivo for selective antagonistic activity against intra-urethral pressure in dog, using phenylephrine as agonist; assay type: functional, Canis lupus familiaris, Urethra
[13] = target: T3, Alpha-1D adrenergic receptor (Homo sapiens, UniProt P25100); test: Binding affinity towards Alpha1D human adrenergic receptors, using [125I]HEAT as radioligand.
T3 sequence (P25100 whole entry): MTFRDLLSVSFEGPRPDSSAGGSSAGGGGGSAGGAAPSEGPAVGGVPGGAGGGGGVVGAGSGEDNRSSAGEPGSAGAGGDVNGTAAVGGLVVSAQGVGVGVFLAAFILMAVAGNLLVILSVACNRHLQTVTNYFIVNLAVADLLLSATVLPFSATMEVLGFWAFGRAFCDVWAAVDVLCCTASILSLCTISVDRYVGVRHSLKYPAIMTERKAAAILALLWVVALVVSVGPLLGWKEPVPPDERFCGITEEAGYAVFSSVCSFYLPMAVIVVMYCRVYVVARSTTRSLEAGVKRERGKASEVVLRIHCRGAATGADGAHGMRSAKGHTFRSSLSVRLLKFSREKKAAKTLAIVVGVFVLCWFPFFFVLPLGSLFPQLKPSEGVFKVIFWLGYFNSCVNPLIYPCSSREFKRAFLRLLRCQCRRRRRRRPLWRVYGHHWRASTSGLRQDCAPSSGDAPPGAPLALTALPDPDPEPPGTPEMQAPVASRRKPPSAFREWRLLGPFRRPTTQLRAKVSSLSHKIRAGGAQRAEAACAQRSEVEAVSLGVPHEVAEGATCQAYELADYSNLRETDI

[14] = species on record: Rattus norvegicus; test: In vitro inhibition of norepinephrine induced contractions in isolated rat aorta; assay type: functional
[15] = test system: Canis familiaris; test: In vivo for selective antagonistic activity against diastolic blood pressure in dog, using phenylephrine as agonist; assay type: functional, Canis lupus familiaris, Artery
[16] = target: 5-hydroxytryptamine receptor 1D (Homo sapiens, UniProt P28221); test: Binding affinity towards 5-HT1D receptor, using [3H]5-HT as radioligand.
Chain of 5-hydroxytryptamine receptor 1D (P28221 whole entry): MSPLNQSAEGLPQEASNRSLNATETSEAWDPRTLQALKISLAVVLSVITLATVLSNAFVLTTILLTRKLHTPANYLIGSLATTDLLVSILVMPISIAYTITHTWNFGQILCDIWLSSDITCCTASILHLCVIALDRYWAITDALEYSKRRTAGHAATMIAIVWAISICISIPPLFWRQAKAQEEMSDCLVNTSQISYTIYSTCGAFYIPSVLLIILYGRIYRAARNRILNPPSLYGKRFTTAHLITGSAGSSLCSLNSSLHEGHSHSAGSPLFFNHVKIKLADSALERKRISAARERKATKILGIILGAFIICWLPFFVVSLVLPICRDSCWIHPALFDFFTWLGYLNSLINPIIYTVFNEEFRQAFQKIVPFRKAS

[17] = target: T4, 5-hydroxytryptamine receptor 1A (Mus musculus, UniProt Q64264); test: Binding affinity towards 5-hydroxytryptamine 1A receptor receptor, using [3H]5-HT as radioligand.
T4 sequence (Q64264 whole entry): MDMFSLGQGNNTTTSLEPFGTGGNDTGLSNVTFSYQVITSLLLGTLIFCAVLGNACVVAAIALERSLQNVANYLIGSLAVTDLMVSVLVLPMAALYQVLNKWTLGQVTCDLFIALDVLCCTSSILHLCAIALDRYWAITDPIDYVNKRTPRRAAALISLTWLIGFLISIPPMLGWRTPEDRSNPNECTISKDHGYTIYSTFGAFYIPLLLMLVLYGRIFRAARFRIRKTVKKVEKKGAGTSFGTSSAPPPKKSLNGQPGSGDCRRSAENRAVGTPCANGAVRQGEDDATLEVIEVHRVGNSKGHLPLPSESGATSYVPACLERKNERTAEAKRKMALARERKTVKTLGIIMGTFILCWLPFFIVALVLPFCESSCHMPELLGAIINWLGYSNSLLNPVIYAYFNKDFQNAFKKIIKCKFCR

[18] = species on record: Homo sapiens; test: In vitro inhibition of A-61603 induced contractions in human prostate tissue; assay type: functional; conditions: Prostate gland
[19] = target: T5, Alpha-2B adrenergic receptor (Homo sapiens, UniProt P18089); test: Binding affinity towards human alpha-2B-adrenergic receptor, using [3H]rauwolscine as radioligand.
T5 sequence (P18089 whole entry): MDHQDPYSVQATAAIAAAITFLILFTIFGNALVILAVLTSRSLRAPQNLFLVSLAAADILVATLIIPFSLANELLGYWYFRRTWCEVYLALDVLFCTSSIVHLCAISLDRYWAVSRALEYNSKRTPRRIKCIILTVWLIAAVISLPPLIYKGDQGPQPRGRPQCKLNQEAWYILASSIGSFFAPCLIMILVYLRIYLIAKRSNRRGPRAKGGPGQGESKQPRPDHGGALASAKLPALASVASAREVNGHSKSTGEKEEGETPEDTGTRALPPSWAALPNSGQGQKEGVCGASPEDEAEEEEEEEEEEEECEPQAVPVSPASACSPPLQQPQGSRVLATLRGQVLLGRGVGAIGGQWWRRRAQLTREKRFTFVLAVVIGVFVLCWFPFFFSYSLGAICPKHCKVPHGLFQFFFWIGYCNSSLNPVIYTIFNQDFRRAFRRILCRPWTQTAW

[20] = target: T6, Alpha-1B adrenergic receptor (Homo sapiens, UniProt P35368); test: Binding affinity towards Alpha1B human adrenergic receptors, using [125I]HEAT as radioligand.
T6 sequence (P35368 whole entry): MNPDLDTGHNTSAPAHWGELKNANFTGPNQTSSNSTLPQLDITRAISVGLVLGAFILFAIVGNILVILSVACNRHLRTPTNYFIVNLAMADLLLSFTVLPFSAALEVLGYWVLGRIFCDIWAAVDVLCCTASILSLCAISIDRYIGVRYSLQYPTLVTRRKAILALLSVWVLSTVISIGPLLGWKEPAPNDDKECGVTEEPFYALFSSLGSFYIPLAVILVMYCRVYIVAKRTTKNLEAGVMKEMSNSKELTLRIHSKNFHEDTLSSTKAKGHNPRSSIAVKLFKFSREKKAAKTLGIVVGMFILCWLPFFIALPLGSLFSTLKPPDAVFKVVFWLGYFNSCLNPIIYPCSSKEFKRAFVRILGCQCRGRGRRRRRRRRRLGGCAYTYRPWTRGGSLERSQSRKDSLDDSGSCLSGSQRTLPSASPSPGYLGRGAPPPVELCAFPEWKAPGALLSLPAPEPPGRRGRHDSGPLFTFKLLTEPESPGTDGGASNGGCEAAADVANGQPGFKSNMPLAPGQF

[21] = target: T7, Alpha-1D adrenergic receptor (Rattus norvegicus, UniProt P23944); test: Binding affinity towards Alpha1D rat adrenergic receptors, using [125I]HEAT as radioligand.
T7 sequence (P23944 whole entry): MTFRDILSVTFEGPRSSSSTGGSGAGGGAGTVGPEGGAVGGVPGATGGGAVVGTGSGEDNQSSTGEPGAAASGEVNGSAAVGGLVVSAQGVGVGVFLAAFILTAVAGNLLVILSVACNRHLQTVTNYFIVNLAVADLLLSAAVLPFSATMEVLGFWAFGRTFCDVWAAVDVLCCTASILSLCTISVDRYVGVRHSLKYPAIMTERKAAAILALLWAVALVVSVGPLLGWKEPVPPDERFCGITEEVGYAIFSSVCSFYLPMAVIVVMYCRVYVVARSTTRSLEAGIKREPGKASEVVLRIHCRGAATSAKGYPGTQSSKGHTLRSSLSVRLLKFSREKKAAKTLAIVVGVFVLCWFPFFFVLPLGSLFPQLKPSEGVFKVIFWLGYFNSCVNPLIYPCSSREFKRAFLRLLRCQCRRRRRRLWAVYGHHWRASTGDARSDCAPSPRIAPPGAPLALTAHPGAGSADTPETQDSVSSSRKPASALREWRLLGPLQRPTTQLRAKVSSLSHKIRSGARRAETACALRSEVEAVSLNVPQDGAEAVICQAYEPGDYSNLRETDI

[22] = target: Histamine H1 receptor (Homo sapiens, UniProt P35367); test: Binding affinity towards Histamine H1 receptor in human brain tissue preparation, using [3H]pyrilamine as radioligand.
Chain of Histamine H1 receptor (P35367 whole entry): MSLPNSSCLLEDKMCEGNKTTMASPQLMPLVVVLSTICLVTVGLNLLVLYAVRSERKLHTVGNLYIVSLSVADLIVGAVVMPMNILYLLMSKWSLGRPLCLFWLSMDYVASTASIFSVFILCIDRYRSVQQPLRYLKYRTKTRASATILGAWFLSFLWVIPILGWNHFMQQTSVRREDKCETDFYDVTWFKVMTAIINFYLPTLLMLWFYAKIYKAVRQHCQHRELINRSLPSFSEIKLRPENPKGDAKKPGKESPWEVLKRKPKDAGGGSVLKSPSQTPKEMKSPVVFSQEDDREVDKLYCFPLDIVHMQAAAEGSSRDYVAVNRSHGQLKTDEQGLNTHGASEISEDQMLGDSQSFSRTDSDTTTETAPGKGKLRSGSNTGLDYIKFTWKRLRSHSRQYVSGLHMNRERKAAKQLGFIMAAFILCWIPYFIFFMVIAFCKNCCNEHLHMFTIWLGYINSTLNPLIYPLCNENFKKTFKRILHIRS

[23] = Half-life in dog; assay type: ADME, organism-based, Canis lupus familiaris; conditions: in vivo
[24] = target: T8, Alpha-2A adrenergic receptor (Homo sapiens, UniProt P08913); test: Binding affinity towards human alpha-2A-adrenergic receptor, using [3H]rauwolscine as radioligand.
T8 sequence (P08913 whole entry): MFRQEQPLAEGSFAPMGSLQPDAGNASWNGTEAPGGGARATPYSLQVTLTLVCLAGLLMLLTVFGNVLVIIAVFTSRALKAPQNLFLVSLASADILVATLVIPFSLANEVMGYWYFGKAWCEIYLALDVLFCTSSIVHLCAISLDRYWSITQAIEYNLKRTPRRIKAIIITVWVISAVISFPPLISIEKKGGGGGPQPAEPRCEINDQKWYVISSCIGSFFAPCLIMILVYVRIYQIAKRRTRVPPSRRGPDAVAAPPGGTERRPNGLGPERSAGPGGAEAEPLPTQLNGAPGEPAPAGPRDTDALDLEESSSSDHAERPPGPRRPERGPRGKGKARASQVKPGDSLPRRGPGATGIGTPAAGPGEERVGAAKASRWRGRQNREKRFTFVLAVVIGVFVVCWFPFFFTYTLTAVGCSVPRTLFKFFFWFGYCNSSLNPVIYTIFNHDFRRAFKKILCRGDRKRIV

[25] = species on record: Canis familiaris; test: In vitro inhibition of phenylephrine induced contractions in dog prostate tissue; assay type: functional; conditions: Canis lupus familiaris, Prostate gland

Ki [1]: > 45 nM | half-life [2]: 6 h | Ki [3]: > 1000 nM | Ki [4]: > 500 nM | Ki [5]: > 1000 nM | bioavailability [6]: 25% | bioavailability [9]: 74% | Ki [10]: 79 nM | Ki [11]: > 500 nM | Ki [13]: 122 nM | Ki [16]: > 500 nM | Ki [17]: > 500 nM | Ki [19]: > 45 nM | Ki [20]: 119 nM | Ki [21]: 62 nM | Ki [22]: 54 nM | half-life [23]: > 12 h | Ki [24]: > 45 nM
SMILES: C[C@@H]1OC(=O)N(C(=O)NCCCN2CCC(c3ccc(F)cc3)CC2)[C@H]1c1ccc(F)c(F)c1
AD50 [7]: 0.012 mg/kg | Kb [8]: 0.26 nM | Kb [12]: 3 µg/kg | Kb [14]: > 1000 nM | DBP15 [15]: >300 µg/kg | Kb [18]: 0.1 nM | Kb [25]: 0.33 nM

SMILES: COc1cc2nc(N3CCN(C(=O)C4CCCO4)CC3)nc(N)c2cc1OC (configuration not stated) [TERAZOSIN]
AD50 [7]: 0.052 mg/kg | Kb [8]: 25 nM | Kb [12]: 16 µg/kg | Kb [14]: 19 nM | DBP15 [15]: 72 µg/kg | Kb [18]: 25 nM | Kb [25]: 130 nM
